From publication PMC9428149, “Tackling recalcitrant Pseudomonas aeruginosa infections in critical illness via anti-virulence monotherapy” (Nature Communications, 2022) come the findings set out here.

Each structure is given as a SMILES string. Read-outs that look alike come from different tables or passages of the source.

Assay [1] has as its system MvfR-regulated small molecules in PA14. In words: Production of HAQs, 2-AA, DHQ and AA in PA14 cultures (LC-MS). The note with it: PA14, 50µM inhibitor; for % Production AA: anthranilic acid, precursor control.
Assay [2] deals with pqsA promoter (PA14 PpqsA-GFPASV). Briefly: pqsA-GFP reporter expression. The following applies: PA14 PpqsA-GFPASV; 50µM per b210 (method b76 says 10 µM). It counts as cell-based, Pseudomonas aeruginosa. On the procedure:
The expression levels of pqsA, which is representative of the pqsABCDE operon transcription, were monitored in the presence of the MvfR inhibitors using PA14 cells containing the PpqsA-GFPASV, a reporter construct of the pqsA promoter fused to a short half-life GFP gene in, such that quantitative quenching of fluorescence corresponds to pqsA promoter repression[22],[32],[48]. […] GFP fluorescence levels were measured at λex = 485 nm/λem = 535 nm after 10 seconds of shaking every 15 min up to 12 h. The IC50 of PpqsA-GFP expression levels was performed as above using the same 13 different concentrations (0.0122–50 μM) for each of the 13 compounds tested.

Assay [3] concerns pyocyanin production in PA14. Briefly: Pyocyanin production assay. The following applies: PA14; 50µM of each inhibitor (method says 10 μM); vs vehicle.
Method: The over-day culture was grown to OD600nm 1.5., diluted again at 1:10,000 in 5 mL LB and incubated with 10 μM of the test compound or the vehicle control for 18 hours at 37 °C and 200 rpm in an incubator shaker. After 18 h, 1 mL of culture was centrifuged for 2 min at 20.000 x g. The supernatant was transferred to a new tube, 200 μL of this were loaded in a flat-bottom 96-well plate, and the pyocyanin levels were quantified by measuring at OD690nm in the infinite F200 plate reader using the Magellan software (Tecan, Switzerland). […] The percent of pyocyanin was calculated compared to the PA14 culture grown in the absence of compounds.
To determine the IC50 of pyocyanin production, we followed the same process as above. […] Using GraphPad Prism Software, the IC50 curve was plotted against percent inhibition of pyocyanin production at each concentration using PA14 in the absence of compounds as a control.
A further assay addresses T1, MvfR protein (MvfRC87) (Pseudomonas aeruginosa, UniProt Q9I4X0).
T1 construct: The MvfRC87 protein purified as in Xiao et. al., 2006; made in house
It is filed as binding. The note with it: SPR. On the procedure:
The selected compounds were tested for their ability to bind to MvfR. Target validation was carried out by using surface plasmon resonance (SPR). The MvfRC87 protein purified as in Xiao et. al., 2006[33] was covalently immobilized on a CM7 Series S sensor chip using an amine coupling reagent kit (GE Healthcare) at the range level of 3000 to 5000 response units (RU). RU was analyzed by Biacore T200 evaluation software 2.0 (GE Healthcare). The relative response units (RUs) 5 seconds before the end of the association were extracted from the double-reference-corrected sensor grams at different concentrations. These responses were plotted against their respective concentrations for MvfR inhibitor alone and in the presence of native MvfR ligand PQS and compared to the calculated responses for the mixture expected for different binding sites.

T1 sequence (Q9I4X0 87-332): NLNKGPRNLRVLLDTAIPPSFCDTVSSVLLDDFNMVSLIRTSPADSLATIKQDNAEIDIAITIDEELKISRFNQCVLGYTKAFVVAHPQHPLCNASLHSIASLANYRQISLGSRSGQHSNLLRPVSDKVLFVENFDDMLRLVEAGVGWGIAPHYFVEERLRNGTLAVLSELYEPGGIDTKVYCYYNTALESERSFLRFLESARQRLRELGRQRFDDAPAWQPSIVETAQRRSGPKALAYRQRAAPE

For `N#Cc1ccc(NC(=O)CC(=O)Nc2cccc(Cl)c2)cc1` [D71], the “% Production 2-AA” value in assay [1] was 57%. In addition, in assay [1], the “% Production DHQ” value came to 92%. Further, the “% Production HHQ” value in assay [1] is listed as 106%. Moreover, in assay [1], the “% Production HQNO” value turned out to be 127%. For the same molecule, the “% Production PQS” value in assay [1] is 105%. For the same molecule, the “% Production AA” value in assay [1] amounted to 207%. Besides, the “% Production pqsA-GFP” value in assay [2] is on record as 10%. Moreover, the “% Production Pyocyanin” value in assay [3] came to 13%. Moreover, the “Response Unit (RU)” value at MvfR protein (MvfRC87) (Concentration 1.00E-05 M) is given as 31.7 RU; at MvfR protein (MvfRC87) (Concentration 1.00E-06 M), 19.5 RU; at MvfR protein (MvfRC87) (Concentration 1.00E-07 M), 5.9 RU; on MvfR protein (MvfRC87) (Concentration 1.00E-08 M), 2.4 RU; on MvfR protein (MvfRC87) (Concentration 3.16E-06 M), 26.8 RU; on MvfR protein (MvfRC87) (Concentration 3.16E-07 M), 11.4 RU. The “Response Unit (RU)” value on MvfR protein (MvfRC87) (Concentration 3.16E-08 M) was found to be 3.1 RU.
`N#Cc1ccc(NC(=O)CNc2ccc(F)cc2)cc1` [G8]: in assay [1], the “% Production 2-AA” value is listed as 112%, the “% Production HHQ” value is 87%, the “% Production HQNO” value was found to be 108% and the “% Production PQS” value worked out at 124%. The “% Production pqsA-GFP” value in assay [2] came out at 63%. Besides, the “% Production Pyocyanin” value in assay [3] was 86%.
Take `Cc1ccccc1NCC(=O)Nc1ccc(C#N)cc1` [G9]: in assay [1], the “% Production 2-AA” value is given as 64%, the “% Production DHQ” value stood at 59%, the “% Production HHQ” value came out at 76% and the “% Production HQNO” value is 92%. In addition, the “% Production PQS” value in assay [1] came to 124%. The “% Production pqsA-GFP” value in assay [2] is recorded as 93%. Moreover, the “% Production Pyocyanin” value in assay [3] is recorded as 94%.
For `Cc1cc(F)ccc1NCC(=O)Nc1ccc(C#N)cc1` [M17], the “% Production 2-AA” value in assay [1] is given as 101%. Further, in assay [1], the “% Production DHQ” value is listed as 135%. Besides, the “% Production HHQ” value in assay [1] is 3%. Besides, in assay [1], the “% Production HQNO” value amounted to 17%. Moreover, in assay [1], the “% Production PQS” value was 11%. In addition, the “% Production AA” value in assay [1] stood at 100%. Also, the “% Production pqsA-GFP” value in assay [2] is given as 32%. Besides, in assay [3], the “% Production Pyocyanin” value is listed as 67%. Also, the “Response Unit (RU)” value at MvfR protein (MvfRC87) (Concentration 1.00E-05 M) was 18.8 RU; on MvfR protein (MvfRC87) (Concentration 1.00E-06 M) it was 6.7 RU; at MvfR protein (MvfRC87) (Concentration 1.00E-07 M), 1.3 RU; at MvfR protein (MvfRC87) (Concentration 1.00E-08 M), 0.7 RU; at MvfR protein (MvfRC87) (Concentration 3.16E-06 M), 12.6 RU; at MvfR protein (MvfRC87) (Concentration 3.16E-07 M) it was 3 RU. Further, the “Response Unit (RU)” value at MvfR protein (MvfRC87) (Concentration 3.16E-08 M) was 0.7 RU.
